Tests used:
[1] = AUC at 24 hrs in cynomolgus monkey at 1 mg/kg, po administered as single dose; format: ADME, organism-based, Macaca fascicularis; parameters: time < 24 hr, dose 1 mg/kg, route oral; conditions: plasma
[2] = Apparent permeability from basolateral to apical side in human Caco-2 cells; format: ADME, cell-based
[3] = Apparent permeability from apical to basolateral side in human Caco-2 cells; format: ADME, cell-based
[4] = Ratio of permeability from basolateral to apical over apical to basolateral side in human Caco-2 cells
[5] = system: Hepatitis C virus; test: Inhibition of HCV 1b NS5B polymerase; parameters: species or system Hepatitis C virus subtype 1b
[6] = Oral bioavailability in cynomolgus monkey at 1 mg/kg administered as single dose; format: ADME, organism-based, Macaca fascicularis; conditions: in vivo
[7] = Metabolic stability in human liver microsomes assessed as half life
[8] = Plasma concentration in cynomolgus monkey at 1 mg/kg, po administered as single dose after 12 hrs; format: ADME, organism-based, Macaca fascicularis; parameters: dose 1 mg/kg, route oral
[9] = Cytotoxicity against human Huh7/C24 cells after 72 hrs; format: cell-based, Huh-7
[10] = system: Hepatitis C virus; test: Antiviral activity against HCV 1b infected in human Huh7/C24 cells after 72 hrs by replicon assay; format: functional, organism-based, Hepacivirus hominis; conditions: genotype 1b, Huh-7, 72 h
[11] = Apparent permeability across human Caco-2 cells

Row | SMILES | IC50 [5] [µM] | half-life ([7]; liver microsomes) [h] | EC50 [10] [µM] | CC50 at 72 h [9] [µM] | other results
1 | CN(Cc1cccc2c1S(=O)(=O)N=C2C1=C(O)[C@H](C(C)(C)C)N(Cc2ccc(F)c(Cl)c2)C1=O)S(C)(=O)=O | 0.023 | > 1 | 0.09 | > 33 | AUC at 24 h [1]: 193 ng·h/mL; Papp B→A [2]: 29 ×10⁻⁶ cm/s; Papp A→B [3]: 0.2 ×10⁻⁶ cm/s; efflux ratio [4]: 132; bioavailability [6]: 4%; concentration at 12 h [8]: 3.1 ng/mL
2 | CCOc1cccc2c1S(=O)(=O)N=C2C1=C(O)[C@H](C(C)C)N(Cc2ccccc2)C1=O | 3.6 | > 1 | 18 | > 33 | 
3 | CC(C)NCC(O)COc1cccc2ccccc12 (configuration not stated) [PROPRANOLOL] |  |  |  |  | Papp [11]: 10 ×10⁻⁶ cm/s
4 | CC(C)[C@H]1C(O)=C(C2=NS(=O)(=O)c3c(OCC#N)cccc32)C(=O)N1Cc1ccccc1 | 1.6 | > 1 | 12 | > 33 | 
5 | CC(C)(C)CCN1C(=O)C(C2=CS(=O)(=O)c3c(CNS(C)(=O)=O)cccc32)=C(O)[C@@H]1C(C)(C)C | 0.24 | > 1 | 6.4 | > 33 | 
6 | CC(C)(C)[C@H]1C(O)=C(C2=NS(=O)(=O)c3c(OCC#N)cccc32)C(=O)N1Cc1ccc(F)c(Cl)c1 | 0.07 | > 1 | 0.7 | > 33 | 
7 | CN(Cc1cccc2c1S(=O)(=O)N=C2C1=C(O)C(C)(C)N(Cc2ccc(F)c(Cl)c2)C1=O)S(C)(=O)=O | 0.46 | > 1 |  | > 33 | 
8 | CC[C@@]1(C)C(O)=C(C2=NS(=O)(=O)c3c(CN(C)S(C)(=O)=O)cccc32)C(=O)N1Cc1ccc(F)c(Cl)c1 | 0.41 |  |  | > 33 | half-life ([7]; microsomes): > 1 h
9 | CN(Cc1cccc2c1S(=O)(=O)N=C2C1=C(O)C2(CC2)N(Cc2ccc(F)c(Cl)c2)C1=O)S(C)(=O)=O | 0.62 | > 1 |  | > 33 | 
10 | CC(C)(C)[C@H]1C(O)=C(C2=NS(=O)(=O)c3cc(NS(C)(=O)=O)ccc32)C(=O)N1Cc1ccc(F)c(Cl)c1 | 0.094 | > 1 | 13 | > 33 | 
11 | CC(C)[C@H]1C(O)=C(C2=NS(=O)(=O)c3c(OCC(N)=O)cccc32)C(=O)N1Cc1ccccc1 | 0.52 | > 1 | 88 | > 33 | 
12 | CC(C)(C)[C@H]1C(O)=C(C2=NS(=O)(=O)c3c(CNS(C)(=O)=O)cccc32)C(=O)N1Cc1ccc(F)c(Cl)c1 | < 0.01 | > 1 | 0.07 | > 33 | AUC at 24 h [1]: 38 ng·h/mL; Papp B→A [2]: 15 ×10⁻⁶ cm/s; Papp A→B [3]: 0.1 ×10⁻⁶ cm/s; efflux ratio [4]: 150; bioavailability [6]: 1%; concentration at 12 h [8]: 0.5 ng/mL
13 | CC(C)[C@H]1C(O)=C(C2=NS(=O)(=O)c3ccccc32)C(=O)N1Cc1ccccc1 |  | > 1 | 24 | > 33 | 
14 | CC(C)[C@@]1(C)C(O)=C(C2=CS(=O)(=O)c3c(CN(C)S(C)(=O)=O)cccc32)C(=O)N1CCC(C)(C)C | 13 | > 1 |  | > 33 | 
15 | CCOc1cccc2c1S(=O)(=O)N=C2C1=C(O)[C@H](C2CCCCC2)N(CCC(C)(C)C)C1=O | 4 |  |  | > 33 | 
16 | CC(C)[C@H]1C(O)=C(C2=NS(=O)(=O)c3c(OCC(=O)C(C)(C)C)cccc32)C(=O)N1Cc1ccccc1 | 21 |  | > 33 | > 33 | 
17 | CN(Cc1cccc2c1S(=O)(=O)C=C2C1=C(O)[C@H](C(C)(C)C)N(CCC(C)(C)C)C1=O)S(C)(=O)=O | 0.92 | > 1 | 5.8 | > 33 | 
18 | CCOc1cccc2c1S(=O)(=O)N=C2C1=C(O)[C@H](C(C)(C)C)N(Cc2cccc(Cl)c2)C1=O | 1.6 |  |  | > 33 | 
19 | CC(C)[C@H]1C(O)=C(C2=NS(=O)(=O)c3c(OCCC(N)=O)cccc32)C(=O)N1Cc1ccccc1 | 1.2 |  | 100 | > 33 | 
20 | CS(=O)(=O)NCc1cccc2c1S(=O)(=O)N=C2C1=C(O)C2(CC2)N(Cc2ccc(F)c(Cl)c2)C1=O | 0.13 |  | > 33 | > 33 | half-life ([7]; microsomes): > 1 h
21 | CC(C)[C@H]1C(O)=C(C2=NS(=O)(=O)c3c(OCC(=O)N4CCOCC4)cccc32)C(=O)N1Cc1ccccc1 | 3.2 | > 1 | > 33 | > 33 | 
22 | CC(C)(C)[C@H]1C(O)=C(C2=NS(=O)(=O)c3c(OCC(N)=O)cccc32)C(=O)N1Cc1ccc(F)c(Cl)c1 | 0.033 | > 1 | 7.9 | > 33 | 
23 | CC(C)[C@H]1C(O)=C(C2=NS(=O)(=O)c3c(O)cccc32)C(=O)N1Cc1ccccc1 | 0.47 | > 1 | 47 | > 33 | 
24 | CCOc1cccc2c1S(=O)(=O)N=C2C1=C(O)[C@H](C(C)(C)C)N(Cc2ccc(F)c(Cl)c2)C1=O | 0.76 |  |  | > 33 | half-life ([7]; microsomes): > 1 h

More lines, main results first:

Row | IC50 [5] [µM] | half-life ([7]; liver microsomes) [h] | EC50 [10] [µM] | SMILES | CC50 at 72 h [9] [µM] | other results
25 | 2.9 |  |  | CCOc1cccc2c1S(=O)(=O)N=C2C1=C(O)C(c2cccs2)N(CCC(C)(C)C)C1=O (racemic) | > 33 | 
26 | 1.5 | > 1 |  | CCOc1cccc2c1S(=O)(=O)N=C2C1=C(O)[C@H](C(C)(C)C)N(CCC(C)(C)C)C1=O | > 33 | 
27 | 0.18 | > 1 | 1.8 | CC(C)(C)[C@H]1C(O)=C(C2=NS(=O)(=O)c3c(OCc4ncon4)cccc32)C(=O)N1Cc1ccc(F)c(Cl)c1 | > 33 | 
28 | 0.42 | 0.167 | 4.3 | CC(C)(C)CCN1C(=O)C(C2=NS(=O)(=O)c3ccccc32)=C(O)[C@@H]1C(C)(C)C | > 33 | AUC at 24 h [1]: 4680 ng·h/mL; Papp B→A [2]: 19 ×10⁻⁶ cm/s; Papp A→B [3]: 9.9 ×10⁻⁶ cm/s; efflux ratio [4]: 2; concentration at 12 h [8]: 5 ng/mL
29 | 5.1 |  |  | CCOc1cccc2c1S(=O)(=O)N=C2C1=C(O)[C@H](CC(C)C)N(CCC(C)(C)C)C1=O | > 33 | 
30 | 9 |  |  | CCOc1cccc2c1S(=O)(=O)N=C2C1=C(O)[C@H](C(C)C)N(CCC(C)(C)C)C1=O | > 33 | 
31 | 0.2 | 0.8 | 11 | CC(C)(C)CCN1C(=O)C(C2=NS(=O)(=O)c3c(OCC(N)=O)cccc32)=C(O)[C@@H]1C(C)(C)C | > 33 | 
32 | 0.045 | > 1 | 2.6 | CC(C)(C)CCN1C(=O)C(C2=NS(=O)(=O)c3c(CCS(C)(=O)=O)cccc32)=C(O)[C@@H]1C(C)(C)C | > 33 | 
33 | 0.65 | 0.733 | 2 | CC(C)(C)CCN1C(=O)C(C2=NS(=O)(=O)c3c(OCc4ncon4)cccc32)=C(O)[C@@H]1C(C)(C)C | > 33 | 
34 | 5.1 |  |  | CCOc1cccc2c1S(=O)(=O)N=C2C1=C(O)[C@H](C(C)(C)C)N(CCC(C)C)C1=O | > 33 | 
35 | 0.018 |  | 0.35 | CC(C)(C)CCN1C(=O)C(C2=NS(=O)(=O)c3c(CNS(C)(=O)=O)cccc32)=C(O)[C@@H]1C(C)(C)C | > 33 | half-life ([7]; microsomes): > 1 h
36 | 0.35 | > 1 | 15 | CC(C)[C@H]1C(O)=C(C2=NS(=O)(=O)c3c(OCc4ncon4)cccc32)C(=O)N1Cc1ccccc1 | > 33 | 

From ChEMBL document CHEMBL1158156, “Structure-based design, synthesis, and biological evaluation of 1,1-dioxoisothiazole and benzo[b]thiophene-1,1-dioxide derivatives as novel inhibitors of hepatitis C virus NS5B polymerase” (Bioorg Med Chem Lett, 2008)
